The values below are quoted from earlier work in US20020022649A1, “STABLE PHARMACEUTICAL FORMULATION” (priority 1998, published 2002).

The conditions of this data set: centchroman as a racemate.

Turning to `COc1ccc2c(c1)OC(C)(C)C(c1ccccc1)C2c1ccc(OCCN2CCCC2)cc1` (racemic) [centchroman, 3,4-trans-2,2-dimethyl-3-phenyl-4-[4-(2-pyrrolidin-1-yl)ethoxy)phenyl]-7-methoxychroman], the “cholesterol lowering, serum concentrations” value is “significant decrease of the serum concentrations”.
